RP-LC retention time data for 58 molecules are collected here from the METLIN SMRT retention time set (Domingo-Almenara et al. 2019).

A short description of this series: gradient 5% acetonitrile 3 min, to 50% in 2 min, to 85% in 15 min, held 3 min, 100 µL/min. As to conditions: column: Zorbax Extend-C18 2.1 x 50 mm; eluents: water / acetonitrile, 0.1% formic acid. Put shortly:
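Each retention time is based on an adduct peak selected computationally and verified by manual inspection. Measurements used HPLC–quadrupole time-of-flight mass spectrometry in positive and negative ionization mode on mixtures of ~100 pure standards. Chromatography ran on a Zorbax Extend-C18 column (2.1 × 50 mm, 1.8 μm) at 100 μL/min with water and acetonitrile, each containing 0.1% formic acid, and dead and dwell volumes of 40 μL and 900 μL.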
`COc1cccc(-c2noc(Cn3ccn4nc(-c5ccc(F)cc5)cc4c3=O)n2)c1OC` had an RP-LC retention time of 1010 s. To `COc1ccccc1NC(=O)CSc1cc(N2CCN(c3ccccc3OC)CC2)ncn1` belongs 1050 s; to `CCOc1cc(=O)c(C(=O)N2CCN(c3ncccn3)CC2)nn1-c1ccc(C)cc1`, 751 s; to `Cc1cccc(Cn2nc3c(S(=O)(=O)N4CCOCC4)cccn3c2=O)c1`, 777 s. Molecule `CCOc1ccc(-c2noc(Cn3nc(-c4ccccc4F)ccc3=O)n2)cc1` had an RP-LC retention time of 1050 s. `Cc1ccc(NC(=O)Nc2ccc3nncn3c2)cc1` returned an RP-LC retention time of 700 s. The value for `COc1cccc(C(=O)Nc2nnc(C3CC(=O)N(c4ccccc4)C3)o2)c1` (stereo not drawn) was 690 s; that for `CCCNC(=O)C1CCN(c2ccc(SCC(=O)NCc3ccccc3)nn2)CC1` was 645 s; that for `Cc1cc(Cl)ccc1NC(=O)C1CC(=O)N(c2ccc3c(c2)CCN3C(=O)C2CC2)C1` (stereo not drawn) was 843 s.

On to `Cn1nc2c(c1NC(=O)C1CCCN1S(=O)(=O)c1ccc(F)cc1)CCC2` (stereo not drawn), for which the RP-LC retention time came out at 700 s. To `CCCCOc1ccccc1C(=O)N(Cc1ccc(Br)o1)C1CCS(=O)(=O)C1` (stereo not drawn) belongs 991 s; to `CCn1cc(-c2nc(CC(=O)Nc3ccccc3)cs2)c2cccnc21`, 892 s; to `O=C(Cc1ccc(F)cc1)NCC(=O)N1CCOC(c2ccccc2)C1` (stereo not drawn), 646 s.

Molecule `CC1(C)CC(=O)C2=C(C1)Nc1ccccc1N(CC(=O)NCC1CCCO1)C2c1cccs1` (stereo not drawn) had an RP-LC retention time of 754 s. To `O=C(CCC1CCN(c2cc(NC3CC3)ncn2)CC1)NCCc1cccs1` belongs 656 s; to `Cn1nc(C(=O)NCc2ccc(F)cc2)c2c1CCN(C(=O)c1ccc(Br)o1)C2`, 790 s. The value for `COc1ccc(-c2nc3cnccn3c2Nc2ccc(Br)cc2)cc1OC` was 884 s; that for `CCOc1ccc(CC(=O)N2CCN(Cc3nc(C)cs3)CC2)cc1` was 586 s; that for `COCCN1CCC(N2CCCN(C(=O)c3ccc(F)c(Cl)c3)CC2)C1=O` (stereo not drawn) was 573 s.

`Cc1nnc(NC(=O)CSc2nnc(-c3ccc(=O)n(C)c3)n2C)s1` returned an RP-LC retention time of 532 s. To `O=C(CCc1c[nH]c2ccccc12)N1CCN(C(=O)c2cc(-c3ccncc3)n[nH]2)CC1` belongs 807 s; to `CCn1c(C)c(C(=O)C(C)N(CCC(C)C)C(=O)c2ccccc2Cl)c(C)c1C(=O)OC` (stereo not drawn), 1210 s; to `CCc1cccc(NC(=O)CN2C(=O)CCc3cc(S(=O)(=O)N4CCCCC4C)ccc32)c1` (stereo not drawn), 998 s. The value for `CCOc1cc(Cl)c(S(=O)(=O)Nc2cccnc2)cc1Cl` was 717 s; that for `Cc1cc(N2CCCC2)n2nc(CN3CCN(c4ccccc4Cl)CC3)nc2n1` was 662 s; that for `Cc1cc(C(=O)NC2CC2)nn1C` was 600 s. `CC(=O)c1cccc(NC(=O)Cn2cccc2-c2nc(-c3ccc4c(c3)OCO4)no2)c1`: the RP-LC retention time is 951 s. Take `COc1cccc(NC(=O)N2CCC3(CC2)N=C(c2ccc(Cl)cc2)C(=O)N3)c1`: the RP-LC retention time was found to be 870 s. To `Cc1ccc(NC(=O)NCCc2cn(CC(C)C)c3ncccc23)cc1C` belongs 858 s. The value for `Cc1cccc(S(=O)(=O)N2CCc3nc(-c4ccccc4)ncc3C2)c1C` was 1160 s. `Cc1cccc2c(=O)n(C3CCN(S(=O)(=O)c4cccc(Cl)c4)CC3)cnc12` gave an RP-LC retention time of 1020 s. `Cc1ccc(NC(=O)C2CCCN(c3ncnc4c3nc3n4CCCCC3)C2)c(Br)c1` (stereo not drawn): the RP-LC retention time worked out at 930 s. The value for `CCc1ccc(S(=O)(=O)c2cnc(N3CCN(c4cc(C)ccc4C)CC3)nc2N)cc1` was 1400 s; that for `CSc1ccc(NS(=O)(=O)c2cc3c(s2)CCN(C(=O)C2CC2)C3)cc1` was 856 s. The value for `Cc1ccc2oc(C(=O)NCCc3cccs3)cc2n1` was 640 s.

As for `O=C(Nc1ccc(Cn2cncn2)cc1)c1ccoc1`, the RP-LC retention time came to 621 s.

`CC(O)(CNC(=O)C(=O)NCCC1=CCCCC1)c1cccs1` (stereo not drawn): the RP-LC retention time turned out to be 1120 s. To `Cc1ccc(C)c(C(=O)N2CCCC(COc3ccc(C(=O)NC(C)C)cc3)C2)c1` (stereo not drawn) belongs 916 s. The value for `CCCN1C(=O)c2cccnc2Sc2cc(C(=O)N3CCCC3)ccc21` was 720 s.

`Cc1ccccc1CC(=O)NC1CCN(c2ccccc2)C1=O` (stereo not drawn) had an RP-LC retention time of 811 s. To `CC1CCN(c2ccc(-c3noc(CN(C)Cc4ccccc4)n3)cn2)CC1` belongs 912 s; to `O=c1c2sccc2n(Cc2nc(-c3ccc(Cl)cc3)no2)c(=O)n1-c1ccccc1F`, 1070 s; to `O=C(CCn1nnc2cc(-c3noc(Cc4ccc(Cl)cc4)n3)ccc21)N1CCOCC1`, 878 s. To `COC(=O)c1ccccc1NC(=O)C1CCCN(c2ncnc3onc(-c4ccc(F)cc4)c23)C1` (stereo not drawn) belongs 1130 s; to `CCCN(C(=O)c1c(C)oc2nc(C)nc(N3CCOCC3)c12)c1ccc(OCC)cc1`, 902 s; to `CCOC(=O)c1c(S(=O)(=O)N2CCC(C(=O)Nc3ccc(CC)cc3)CC2)c(C)n(CC)c1C`, 984 s. The value for `CN1c2cc(Cl)ccc2C(=O)NC12CCN(C(=O)Nc1ccc3c(c1)OCCO3)CC2` was 781 s.

For the molecule `CCn1cc(CC(=O)NCC2CC2)c2cccnc21`, the RP-LC retention time was 624 s.

`O=C(NCc1cc(F)cc(F)c1)C1CCN(c2cnc(N3CCCC3)nc2)CC1`: the RP-LC retention time came to 674 s.

`COc1ccc(C(=O)N2CCC3(CC2)NC(=O)c2cc(F)ccc2N3C)cc1` showed an RP-LC retention time of 730 s. The molecule `Cn1cc(-c2ccc(F)cc2)cc1C(=O)NC1CC1` gave an RP-LC retention time of 847 s.

Turning to `Cc1ccc(NS(=O)(=O)c2c(-c3nc(C4CCC4)no3)c(C)n(C)c2C)cc1`, the RP-LC retention time is 989 s.

Take `COc1ccc(-c2nnc(-c3ccc(Cl)c(S(=O)(=O)N4CCOCC4)c3)o2)cc1OC`: the RP-LC retention time worked out at 884 s. To `Cc1ccc2c(c1)C(=O)NC1(CCN(C(=O)NC3CCCCC3)CC1)N2C` belongs 763 s.

`C[C@H]1CC[C@@H]2[C@@H](C)[C@H]3[C@H](C[C@H]4[C@@H]5CC[C@H]6C[C@@H](O)CC[C@]6(C)[C@H]5CC[C@]34C)N2C1` gave an RP-LC retention time of 763 s. To `Cc1cc(C(=O)N2c3ccccc3CC2c2nnc(C(C)C)o2)nn1C` (stereo not drawn) belongs 829 s; to `CCOC(=O)C1CCN(S(=O)(=O)c2ccc(Cl)c(-c3nnc(-c4ccccc4)o3)c2)CC1`, 1130 s; to `O=C(Cn1cnc2nc3c(cc2c1=O)CCCC3)Nc1cccc2c1CCCC2`, 808 s.
